Patent US9795134B2, “Growth enhancement of plant” (RHODIA OPERATIONS, priority 2012, dated 2017)

System: Wheat seeds
Experiment: Germination test on wheat seeds with pesticide (tebuconazol) treatment
Assay type: in vivo
Conditions: Guar 1/seed 0.2%, tebuconazol/seed 0.1%, 25 ml water each 2 days, 25° C.
Description: Germination rate means the number of plant emerging out of soil in comparison with the number of all introduced in the soil. Height is the medium height of all plants in a set. Spraying an aqueous solution comprising 0.4 wt % of Guar 1 and […] additives on the surface of Wheat seeds, to obtain a weight ratio Guar 1/seed of 0.2% and tebuconazol/seed of 0.1%. 900 g of soil in each pot are used; this soil coming from […] province and belongs to […] soil. The germination test is carried out under watering conditions of 25 ml water each 2 days, with a temperature is 25° C.

## CC(C)(C)C(O)(CCc1ccc(Cl)cc1)Cn1cncn1 (centres unmarked) [tebucanozol, tebuconazol]
  Germination rate (36 days): 47%
  Height (36 days): 4.6 cm
